Test results reported in US5070210A, “Novel ketenimines as intermediates for insecticides” (ICI Americas Inc., priority 1990, dated 1991).

Columns and labels:
Type in all cases: in vivo
[1] = tested on: Housefly [Musca domestica]; assay: Housefly insecticidal test; conditions: μg per 25 female flies; mortality after 48 hours
Procedure, shortened: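 Dose range started at 100 μg per 25 female flies and went downward. Insects (1-2 days old) contacted a dried acetone/peanut-oil deposit in dishes; LC50 values come from dosage-mortality curves at 48 h.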

[2] = tested on: Tobacco Budworm [Heliothis virescens (Fabricius)] eggs; assay: Tobacco budworm egg test; conditions: 2-day old eggs, percent in solution
Procedure, shortened: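 Step 1: dip 2-day old egg patches in acetone test solutions (top concentration 0.1%). Step 2: hold in dishes with rearing medium at 78° F. Step 3: record mortality after control hatch and feeding.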

[3] = tested on: Cabbage Looper [Trichoplusia ni (Hubner)]; assay: Cabbage looper insecticidal test; conditions: second-instar larvae, percent in solution; 3-5 days
Procedure, shortened: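 Squash cotyledons dipped in test solution (acetone-water 50-50, ≤0.1%), dried, offered to 5 second-instar larvae; mortality after 3-5 days gives LC50.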

[4] = tested on: Maize weevil [Sitophilus Zeamais (Motschulsky)]; assay: Maize weevil insecticidal test; conditions: adult weevils, percent in solution; 48 hours
Description: The compounds in Tables 1 and 2 above were tested for insecticidal activity using the following testing procedures. LC50 values, based on the results of these tests and calculated according to dosage-mortality curves, are expressed in Table 3.
Maize weevil [Sitophilus Zeamais (Motschulsky)]:
Test compounds were diluted in a 50:50 acetone:water solution. Four corn seeds [Zea mays (L.)] which had been immersed in test solutions for 2-3 seconds and allowed to dry were placed in containers together with 10 adult weevils. The containers were covered and kept at a temperature of about 25° C. Mortality was recorded after 48 hours. Test concentrations ranged from 0.01% down to that at which 50% mortalilty occurred. The LC50 values are expressed below in Table 3 under the heading "MW" in terms of percent of the test compound in solution.

| SMILES | LC50, HF [1] | LC50, TBW, E (TBW-E) [2] | LC50, CL [3] | LC50, MW [4] |
| --- | --- | --- | --- | --- |
| CC(C)C(=Nc1ccc(C(C)(C)C)cc1)OCc1ccc(F)c(Oc2ccc(Cl)cc2)c1 [Compound 301] | > 100 µg | > 0.1% | 0.008% | > 0.01% |
| CC(C)C(=Nc1cccc([N+](=O)[O-])c1)OCc1cccc(Oc2ccccc2)c1 [Compound 302] | 15 µg | > 0.1% | 0.003% | > 0.01% |
| CC(C)C(=Nc1c(F)c(F)cc(F)c1F)OCc1cccc(Oc2ccc(F)cc2)c1 [Compound 304] | > 100 µg | > 0.1% | 0.0024% | > 0.01% |
| CC(Br)C(=Nc1ccc2c(c1)OCO2)OCc1cccc(Oc2ccccc2)c1 (stereo not shown) [Compound 306] | > 100 µg | 0.1% | 0.005% | > 0.01% |
| CC(C)C(=Nc1ccc([N+](=O)[O-])c(C(F)(F)F)c1)OCc1cccc(Oc2ccccc2)c1 [Compound 307] | > 100 µg | 0.08% | 0.002% | > 0.01% |
| CC(C)C(=Nc1ccc(F)c(I)c1)OCc1ccc(F)c(Oc2ccccc2)c1 [Compound 334] | 9 µg | 0.013% | 0.0007% | > 0.01% |
| CC(C)c1ccc(N=C(OCc2cccc(Oc3ccccc3)c2)C2CCC2)cc1 [Compound 339] | > 100 µg | > 0.1% | 0.017% | > 0.01% |
| CC(C)C(=Nc1ccc(Cl)c(C(F)(F)F)c1)OCc1ccc(F)c(Oc2ccc(F)cc2)c1 [Compound 340] | 34 µg | 0.04% | 0.00037% | 0.0069% |
| CC(C)C(=Nc1cccc(Cl)c1)OCc1ccc(F)c(Oc2ccc(F)cc2)c1 [Compound 341] | 4 µg | 0.023% | 0.0005% | > 0.01% |
| CC(C)C(=Nc1cccc(F)c1)OCc1ccc(F)c(Oc2ccc(F)cc2)c1 [Compound 342] | 4.1 µg | 0.04% | 0.0008% | > 0.01% |
| Cc1ccc(Oc2cccc(COC(=Nc3ccc(C(C)(C)C)cc3)C(C)C)c2)cc1 [Compound 344] | > 100 µg | > 0.1% | 0.024% | > 0.01% |
| COc1ccc(Oc2cccc(COC(=Nc3ccc(C(C)(C)C)cc3)C(C)C)c2)cc1 [Compound 345] | > 100 µg | > 0.1% | 0.018% | > 0.01% |
| CCOc1ccc(N=C(OCc2cccc(Oc3ccccc3)c2)C(C)C)cc1Cl [Compound 368] | < 100 µg | 0.04% | 0.002% | > 0.01% |
| CCOc1ccc(N=C(OCc2cccc(Oc3ccccc3)c2)C(C)C)cc1 [Compound 371] | < 100 µg | > 0.1% | 0.0022% | > 0.01% |
| CCOc1ccc(N=C(OCc2ccc(F)c(Oc3ccc(Cl)cc3)c2)C(C)C)cc1 [Compound 372] | > 100 µg | > 0.1% | > 0.1% | > 0.01% |
| CCOc1ccc(N=C(OCc2ccc(F)c(Oc3ccccc3)c2)C(C)C)cc1 [Compound 373] | < 100 µg | > 0.1% | > 0.1% | > 0.01% |
| CC(C)C(=Nc1ccc(I)c(Cl)c1)OCc1cccc(Oc2ccc(F)cc2)c1 [Compound 374] | < 100 µg | 0.02% | 0.00058% | > 0.01% |
| CC(C)C(=Nc1ccc(F)c(Br)c1)OCc1ccc(F)c(Oc2ccc(Cl)cc2)c1 [Compound 379] | < 100 µg | 0.02% | 0.00075% | > 0.01% |
| CC(C)C(=Nc1ccc(Br)c(Br)c1)OCc1ccc(F)c(Oc2ccc(F)cc2)c1 [Compound 383] | < 100 µg | 0.038% | 0.00029% | > 0.01% |
